Assay results: US7687522B2, “Substituted pyridines and pyrimidines and their use in treatment of cancer” (Amgen Inc., priority 2006, dated 2010)

Molecular target: T1, c-Met (Homo sapiens, UniProt P08581)
T1 construct: A PCR product covering residues 1058-1365 of c-Met (c-Met kinase domain) is generated; made in house; host or cells: baculovirus-infected (insect) cells
Experiment: c-Met receptor assay (HTRF kinase assay with GST-cMet (P) enzyme, gastrin substrate)
Type: biochemical
Description: A PCR product covering residues 1058-1365 of c-Met (c-Met kinase domain) is generated as described in WO 06/116,713 the entirety of which is incorporated herein by reference.
Baculovirus cells are broken in 5× (volume/weight) of Lysis Buffer (50 mM HEPES, pH 8.0, 0.25 M NaCl, 5 mM mercaptoethanol, 10% glycerol plus Complete Protease Inhibitors (Roche (#10019600), 1 tablet per 50 mL buffer). The lysed cell suspension is centrifuged at 100,000×g (29,300 rpm) in a Beckman ultracentrifuge Ti45 rotor for 1 h. The supernatant is incubated with 10 ml of Glutathione Sepharose 4B from Amersham Biosciences (#27-4574-01). Incubation is carried out overnight in a cold room (approximately 8° C.). The resin and supernatant is poured into an appropriately sized disposable column and the flow through supernatant was collected. The resin is washed with 10 column volumes (100 mL) of Lysis Buffer. The GST-cMET is eluted with 45 mL of 10 mM Glutathione (Sigma #G-4251) in Lysis Buffer. The elution is collected as 15 mL fractions. Aliquots of the elution fractions are run on SDS PAGE (12% Tris Glycine gel, Invitrogen, #EC6005BOX). The gel is stained with 0.25% Coomassie Blue stain. Fractions with GST-cMET are concentrated with a Vivaspin 20 mL Concentrator (#VS2002; […]) to a final volume less than 2.0 ml. The concentrated GST-cMET solution is applied to a Superdex 75 16/60 column (Amersham Biosciences # 17-1068-01) equilibrated with 25 mM Tris, pH 7.5, 100 mM NaCl, 10 mM mercaptoethanol, 10% glycerol. The GST-cMET is eluted with an isocratic run of the above buffer, with the eluent collected in 1.0 mL fractions. Fractions with significant OD280 readings are run on another 12% Tris Glycine gel. The peak tubes with GST-cMET are pooled and the OD280 is read with the column buffer listed above as the blank buffer.
Phosphorylation of the purified GST-cMET is performed by incubating the protein for 3 h at RT with the following:
After incubation, the solution is concentrated in a Vivaspin 20 mL Concentrator to a volume less than 2.00 mL. The solution is applied to the same Superdex 75 16/60 column used above after re-equilibration. The GST-cMET is eluted as described above. The elution fractions corresponding to the first eluted peak on the chromatogram are run on a 12% Tris Glycine gel, as above, to identify the fractions with GST-cMET. Fractions are pooled and the OD280 is read with the column buffer used as the blank.
A Kinase reaction Buffer is prepared as follows:
When the assay is carried out, freshly add:
The HTRF buffer contains: 50 mM Tris-HCl (pH 7.5), 100 mM NaCl, 0.1% BSA, 0.05% Tween 20.5 mM EDTA Fresh add SA-APC (PJ25S Phycolink Streptavidin-Allophycocyanin Conjugate, Prozyme Inc.) and Eu-PT66 (Eu-W1024 labeled anti-phosphorotyrosine antibody PT66, AD0069, Lot 168465, Perkin-Elmer Inc.) to reach the final concentration: • 0.1 nM final Eu-PT66 • 11 nM final SA-APC Methods: 1. Dilute GST-cMet (P) enzyme in kinase buffer as follows: Prepare 8 nM GST-cMet (P) working solution (7.32 μM to 8 nM, 915 X, 10 μL to 9.15 mL). In a 96 well clear plate [Costar # 3365] add 100 μL in eleven columns, in one column add 100 μL kinase reaction buffer alone. 2. Assay plate preparation: Use Biomek FX to transfer 10 μL 8 nM GST-cMet (P) enzyme, 48.4 μL kinase reaction buffer, 1.6 μL compound (in DMSO) (Start concentration at 10 mM, 1 mM and 0.1 mM, sequential dilution 1:3 to reach 10 test points) in a 96 well costar clear plate [Costar # 3365], mix several times. Then incubate the plate at RT for 30 min. 3. Prepare Gastrin and ATP working solution in kinase reaction buffer as follows: Prepare 4 μM Gastrin and 16 μM ATP working solution
Use Biomek FX to add 20 μl ATP and Gastrin working solution to the assay plate to start reaction, incubate the plate at RT for 1 h. 4. Transfer 5 μL reaction product at the end of 1 h into 80 μL HTRF buffer in black plate [Costar # 3356], read on Discover after 30 min incubation.

T1 sequence (P08581 1058-1365): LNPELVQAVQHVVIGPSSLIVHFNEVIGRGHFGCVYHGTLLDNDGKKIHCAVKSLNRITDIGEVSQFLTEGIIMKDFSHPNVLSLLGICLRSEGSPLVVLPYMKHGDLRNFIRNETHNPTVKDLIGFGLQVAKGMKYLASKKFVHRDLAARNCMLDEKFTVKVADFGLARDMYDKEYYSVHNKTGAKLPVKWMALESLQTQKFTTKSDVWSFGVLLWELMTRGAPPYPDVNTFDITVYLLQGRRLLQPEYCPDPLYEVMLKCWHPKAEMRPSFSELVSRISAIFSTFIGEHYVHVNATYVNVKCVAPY

Ki	SMILES
0.011 µM	Cn1c(Nc2ccccc2)ncc(-c2ccc(Oc3ccnc(NC(=O)N4CCCC4)c3)cn2)c1=O [Example 1, N-(4-(6-(1-methyl-6-oxo-2-(phenylamino)-1,6-dihydropyrimidin-5-yl)pyridin-3-yloxy)pyridin-2-yl)pyrrolidine-1-carboxamide]
0.11 µM	Cn1c(Nc2ccccc2F)ncc(-c2ccc(Oc3ccnc(NC(=S)N4CCCC4)c3)cn2)c1=O [Example 3, N-(4-(6-(2-(2-fluorophenylamino)-1-methyl-6-oxo-1,6-dihydropyrimidin-5-yl)pyridin-3-yloxy)pyridin-2-yl)pyrrolidine-1-carbothioamide]
0.057 µM	Cn1c(Nc2ccccc2)ncc(-c2ccc(Oc3ccnc(NC(=O)N4CCOCC4)c3)cn2)c1=O [Example 6, N-(4-(6-(1-methyl-6-oxo-2-(phenylamino)-1,6-dihydropyrimidin-5-yl)pyridin-3-yloxy)pyridin-2-yl)morpholine-4-carboxamide]
0.087 µM	CN1CCN(C(=O)Nc2cc(Oc3ccc(-c4cnc(Nc5ccccc5)n(C)c4=O)nc3)ccn2)CC1 [Example 7, 4-methyl-N-(4-(6-(1-methyl-6-oxo-2-(phenylamino)-1,6-dihydropyrimidin-5-yl)pyridin-3-yloxy)pyridin-2-yl)piperazine-1-carboxamide]
0.006 µM	Cn1c(Nc2ccc(F)cc2)ncc(-c2ccc(Oc3ccnc(NC(=O)N4CCCC4)c3)cn2)c1=O [Example 10, N-(4-(6-(2-(4-fluorophenylamino)-1-methyl-6-oxo-1,6-dihydropyrimidin-5-yl)pyridin-3-yloxy)pyridin-2-yl)pyrrolidine-1-carboxamide]
> 20 µM	Cc1noc(-c2cccc(Nc3nccc(Oc4ccc(-c5cnc(Cc6ccccc6)n(C)c5=O)cc4F)n3)c2)n1 [Example 13, 2-benzyl-5-(3-fluoro-4-(2-(3-(3-methyl-1,2,4-oxadiazol-5-yl)phenylamino)pyrimidin-4-yloxy)phenyl)-3-methylpyrimidin-4(3H)-one]
2.34 µM	CNc1nccc(Oc2ccc(-c3cnc(Cc4ccccc4)n(C)c3=O)cc2F)n1 [Example 14, 2-benzyl-5-(3-fluoro-4-(2-(methylamino)pyrimidin-4-yloxy)phenyl)-3-methylpyrimidin-4(3H)-one]
0.012 µM	CCn1c(Nc2ccc(F)cc2)ncc(-c2ccc(Oc3ccnc(NC(=O)N4CCC4)c3)c(F)c2)c1=O [Example 21, N-(4-(4-(1-ethyl-2-(4-fluorophenylamino)-6-oxo-1,6-dihydropyrimidin-5-yl)-2-fluorophenoxy)pyridin-2-yl)azetidine-1-carboxamide]
0.011 µM	Cn1c(Nc2cccc(F)c2)ncc(-c2ccc(Oc3ccnc(NC(=O)N4CCCC4)c3)cn2)c1=O [Example 25, N-(4-(6-(2-(3-fluorophenylamino)-1-methyl-6-oxo-1,6-dihydropyrimidin-5-yl)pyridin-3-yloxy)pyridin-2-yl)pyrrolidine-1-carboxamide]
0.03 µM	Cn1c(Nc2cccc(F)c2)ncc(-c2ccc(Oc3ccnc(NC(=S)N4CCCC4)c3)cn2)c1=O [Example 26, N-(4-(6-(2-(3-fluorophenylamino)-1-methyl-6-oxo-1,6-dihydropyrimidin-5-yl)pyridin-3-yloxy)pyridin-2-yl)pyrrolidine-1-carbothioamide]
